Converted amounts (≈) assume the structure as drawn.
Columns and labels:
[1] = test system: Sitophilus granarius; assay: 24 hours' mortality of tetrametrin and cinerin with synergist (Example 10); settings: for mortality at 10 mg/disk: Sitophilus granarius, 24 h, read-out: 24 hours' mortality, Paralitical and killed insects
Method: (§1) As insecticide tetrametrin and cinerin I are used. The insecticidal effect is tested on 2-4 weeks' old Sitophilus granarius (Corn-Weevil) imago.
(§2) Piperonyl butoxide and the complex of piperonyl butoxide and cyclodextrin are applied as described in Example 9. The ratio of pyrethroide and synergistic agent amounts to 1:4 in all cases. The efficiency of insecticidal effect is proportional to the value of the 24 hours' mortality (killing effect).

[2] = test system: Sitophilus granarius; assay: Knock-down effect of tetrametrin and cinerin I with synergist (Example 10); assay type: in vivo, Sitophilus granarius (Corn-Weevil); settings: pyrethroide:synergistic agent 1:4
Method: as §1, §2

[3] = cited from earlier work
[4] = test system: Drosophila melanogaster Meigen (vinegar midge); assay: 24 hours' mortality of tetrametrin on midges pre-fed with piperonyl butoxide or its complex (Example 8); assay type: in vivo; settings: pre-fed with synergist
Method: The emulsion and suspension also contain 5% of sucrose.
Next day the 24 hours' mortality is determined.

[5] = physchem; settings: water

CC(C)=CC1C(C(=O)OCN2C(=O)C3=C(CCCC3)C2=O)C1(C)C (centres unmarked) [tetrametrin]
mortality at 10 mg/disk [1]: 41% | Knock-down effect ([2]; 90 minutes): 0 | Knock-down effect ([2]; 170 minutes): 9 | Knock-down effect ([2]; 210 minutes): 9 | Knock-down effect ([2]; 300 minutes): 6

CCCCOCCOCCOCc1cc2c(cc1CCC)OCO2 [piperonyl butoxide, 5-{[2-(2-butoxy-ethoxy)-ethoxy]-methyl}-6-propyl-1,3-benzodioxole]
solubility in organic solvents ([3]; organic solvents): soluble in organic solvents | solubility in water ([3]; water): substantially insoluble in water | Mortality (24 hours mortality; killing effect) ([4]; tetrametrin dose 0.078 mg/disk): 0% | Mortality (24 hours mortality; killing effect) ([4]; tetrametrin dose 0.156 mg/disk): 8% | Mortality (24 hours mortality; killing effect) ([4]; tetrametrin dose 0.313 mg/disk): 34% | Mortality (24 hours mortality; killing effect) ([4]; tetrametrin dose 0.625 mg/disk): 48% | Mortality (24 hours mortality; killing effect) ([4]; tetrametrin dose 1.250 mg/disk): 100% | Mortality (24 hours mortality; killing effect) ([4]; tetrametrin dose 5.000 mg/disk): 100% | solubility at 1 h [5]: 66 µg/mL (≈ 195 µM)

C/C=C\CC1=C(C)[C@@H](OC(=O)[C@@H]2[C@@H](C=C(C)C)C2(C)C)CC1=O [cinerin]
mortality at 10 mg/disk [1]: 31% | 24 hours' mortality; Paralitical and killed insects ([1]; pyrethroide dose 1.250 mg/disk, pyrethroid:synergist 1:4): 0% | Knock-down effect ([2]; 90 minutes): 6 | Knock-down effect ([2]; 170 minutes): 9 | Knock-down effect ([2]; 210 minutes): 8 | Knock-down effect ([2]; 300 minutes): 2
